Columns and labels:
MST1-GFP = target: T1, MST1-GFP (Homo sapiens, UniProt Q13043); test: microscale thermophoresis; details: A549 cell lysate; GFP fusion as fluorophore; constant, if any, only in figure
T1 construct: gene STK4; GFP-tagged MST1 expressed from plasmid in A549 cells, RIPA lysate
T1 sequence (Q13043 1-487): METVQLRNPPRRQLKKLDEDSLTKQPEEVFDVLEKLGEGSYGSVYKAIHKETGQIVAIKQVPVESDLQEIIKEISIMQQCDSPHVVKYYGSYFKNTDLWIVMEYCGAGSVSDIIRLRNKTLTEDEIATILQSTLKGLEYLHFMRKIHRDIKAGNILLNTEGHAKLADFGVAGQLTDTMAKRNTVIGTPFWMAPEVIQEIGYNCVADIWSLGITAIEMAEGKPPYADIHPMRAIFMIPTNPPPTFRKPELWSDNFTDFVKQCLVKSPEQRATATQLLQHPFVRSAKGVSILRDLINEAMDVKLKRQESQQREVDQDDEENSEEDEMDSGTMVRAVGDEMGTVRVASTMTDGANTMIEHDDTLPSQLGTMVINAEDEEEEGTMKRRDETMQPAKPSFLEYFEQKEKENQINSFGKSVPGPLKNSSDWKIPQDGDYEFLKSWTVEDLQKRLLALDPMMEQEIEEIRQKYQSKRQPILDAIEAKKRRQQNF
Description: microscale thermophoresis on MST1-GFP | Microscale thermophoresis confirmed dose‐dependent binding affinity (Figure 1H)

MST1 [1] = target: T2, MST1 (Homo sapiens, UniProt Q13043); test: isothermal titration calorimetry; assay type: binding; set-up: gene STK4; isolated MST1 protein (ITC) and "active MST1" (ADP-Glo); details: 25 °C; 50 mM HEPES pH 7.5, 150 mM NaCl, 2 mM DTT
T2 sequence (Q13043 1-487): T1 sequence (Q13043 1-487)

MST1 [2] = target: T2, MST1; test: ADP-Glo kinase assay; assay type: biochemical; set-up: gene STK4; isolated MST1 protein (ITC) and "active MST1" (ADP-Glo); details: activator; ATP and MOB1a substrate; 25 °C, 30 min
MST1 [3] = target: T2, MST1; test: CETSA (immunoblot), H520 and A549 cells; assay type: cell-based; set-up: gene STK4; endogenous protein in A549 and H520 cells, detected by immunoblot (antibody CST #3682); details: 42-56 °C, 3 min; supported by DARTS (50 and 100 µM, Pronase)

`C=C(C)C(=O)OC1CC(C)=CC2(OC)C=C(C)C(O2)C2OC(=O)C(=C)C12` (stereo not shown) [EM2] was tested, and the Kd (MST1-GFP) was 1.79 ± 1.69 µM, the Kd (MST1 [1]) was 1.97 ± 1.02 µM and the kinase activity (MST1 [2]) was “functions through its kinase activity, which significantly increased with EM2 concentration (Figure 1J)”. For the same molecule, the “CETSA (immunoblot), H520 and A549 cells” value (MST1 [3]) was “CETSA demonstrated that EM2 enhanced MST1 thermal stability”.

Source: PMC12767113, “EM2, a Natural Product MST1/2 Kinase Activator, Suppresses Non‐Small Cell Lung Cancer via Hippo Pathway Activation” (Advanced Science, 2025)
